Data reported in patent US10112911B2, “Substituted cyanoguanidines as oral anti-virals” (Abbvie Inc, priority 2012, dated 2018).
Counter-ions that a name gives are not always drawn.

Tested on: RSV (Group A, Long Strain)
Assay: Cytopathetic effect (CPE) protection antiviral assay, MTT readout
Assay type: cell-based
Details: human respiratory syncytial virus, HEp-2, 96 h, HEp-2 cells, 0.2 MOI RSV, 4 days incubation, protection from CPE (Table 1); read-out: RSV EC50
Protocol: HEp-2 cells and RSV (Group A, Long Strain) were obtained from the American Type Culture Collection (Manassas, Va.).
A cytopathetic effect (CPE) protection assay was performed to determine the ability of a compound to protect the cells from viral infection and thus the CPE induced by viral infection. 96-Well plates were first seeded with […] per well in Dulbecco's modified Eagle's medium (DMEM) containing 10% fetal bovine serum (FBS). One day after the cells were seeded, they were preincubated with serial dilutions of compounds prepared in 100 μL assay medium (DMEM mixed with F12 medium at a 1:1 ratio, supplemented with 2% FBS and 1 mM sodium pyruvate) for 1 hour at 37° C. 100 μL of assay medium containing 0.2 multiplicity of infection (MOI) of RSV was then added to each well of cells. In addition to wells containing infected cells incubated with compounds, each plate also contained replicates of two kinds of controls: (1) Virus control contained cells infected with 0.2 MOI of RSV in assay medium, (2) Uninfected cell control contained cells incubated with assay medium only. After 4 days of incubation at 37° C., the viability of cells was assessed using MTT (Thiazolyl blue tetrazolium bromide, Sigma). A stock solution of MTT, at a concentration of 4 mg/mL in phosphate-buffered saline, was added to all wells at 25 μL per well. Plates were further incubated for 4 hours, and each well was then treated with 50 μL of a solution containing 20% sodium dodecyl sulfate (SDS) and 0.02 N HCl. After an overnight incubation, the plates were measured on a BioTek® microtiter plate reader at wavelengths of 570 nm and 650 nm. The MTT detection is based on the fact that viable (uninfected) cells can reduce the tetrazolium salts into colored formazan products, which can then be quantitated by spectrometry. Based on the spectrometric absorbance of each sample, the percent of protection from CPE, which is an indicator of protection from viral infection, can be calculated for each compound and the 50% effective concentrations (EC50) can be calculated using a nonlinear regression curve fitting equation provided by the GraphPad Prism® 4 software.
Compounds were tested to determine both their antiviral and toxicity to determine their therapeutic window. Determination of the EC50 and TD50 of these active compounds were repeated one additional time to confirm the window.

SMILES	EC50
Cc1cccc(C)c1N/C(=N/C#N)N1CCN(c2cnc3ccccc3n2)CC1C(C)C (stereo not drawn) [Example 1.17, N′-cyano-N-(2,6-dimethylphenyl)-2-isopropyl-4-(quinoxalin-2-yl)piperazine-1-carboximidamide]	0.54 µM
COc1ccccc1N/C(=N/C#N)N1CCN(c2cnc3ccccc3n2)CC1C(C)C (stereo not drawn) [Example 1.18, N′-cyano-2-isopropyl-N-(2-methoxyphenyl)-4-(quinoxalin-2-yl)piperazine-1-carboximidamide]	1.16 µM
CC(C)C1CN(c2cnc3ccccc3n2)CCN1/C(=N\C#N)Nc1ccccc1F (stereo not drawn) [Example 1.21, N′-cyano-N-(2-fluorophenyl)-2-isopropyl-4-(quinoxalin-2-yl)piperazine-1-carboximidamide]	2.07 µM
Cc1cccc(N/C(=N/C#N)N2CCN(c3cnc4ccccc4n3)CC2C(C)C)c1 (stereo not drawn) [Example 1.22, N′-cyano-2-isopropyl-N-(3-methylphenyl)-4-(quinoxalin-2-yl)piperazine-1-carboximidamide]	0.4 µM
CC(C)c1ccccc1N/C(=N/C#N)N1CCN(c2cnc3ccccc3n2)CC1C(C)C (stereo not drawn) [Example 1.26, N′-cyano-2-isopropyl-N-(2-isopropylphenyl)-4-(quinoxalin-2-yl)piperazine-1-carboximidamide]	> 10 µM
CC(C)C1CN(c2cnc3ccccc3n2)CCN1/C(=N\C#N)Nc1cccc(Cl)c1 (stereo not drawn) [Example 1.28, N-(3-chlorophenyl)-N′-cyano-2-isopropyl-4-(quinoxalin-2-yl)piperazine-1-carboximidamide]	3.1 µM

Continued, values first:

EC50	SMILES
> 10 µM	CC(C)C1CN(c2cnc3ccccc3n2)CCN1/C(=N\C#N)Nc1ccc2c(c1)OCO2 (stereo not drawn) [Example 1.14, N-(1,3-benzodioxol-5-yl)-N′-cyano-2-isopropyl-4-(quinoxalin-2-yl)piperazine-1-carboximidamide]
> 10 µM	CC(C)C1CN(c2cnc3ccccc3n2)CCN1/C(=N\C#N)Nc1ccc(Cl)cc1 (stereo not drawn) [Example 1.15, N-(4-chlorophenyl)-N′-cyano-2-isopropyl-4-(quinoxalin-2-yl)piperazine-1-carboximidamide]
> 10 µM	Cc1ccc(N/C(=N/C#N)N2CCN(c3cnc4ccccc4n3)CC2C(C)C)cc1 (stereo not drawn) [Example 1.16, N′-cyano-2-isopropyl-N-(4-methylphenyl)-4-(quinoxalin-2-yl)piperazine-1-carboximidamide]
> 10 µM	CC(C)C1CN(c2cnc3ccccc3n2)CCN1/C(=N\C#N)Nc1cccc(F)c1 (stereo not drawn) [Example 1.20, N′-cyano-N-(3-fluorophenyl)-2-isopropyl-4-(quinoxalin-2-yl)piperazine-1-carboximidamide]
> 10 µM	CC(C)C1CN(c2cnc3ccccc3n2)CCN1/C(=N\C#N)Nc1ccc(F)cc1 (stereo not drawn) [Example 1.23, N′-cyano-N-(4-fluorophenyl)-2-isopropyl-4-(quinoxalin-2-yl)piperazine-1-carboximidamide]
> 6.68 µM	CC(C)C1CN(c2cnc3ccccc3n2)CCN1/C(=N\C#N)Nc1ccc(C(F)(F)F)cc1 (stereo not drawn) [Example 1.24, N′-cyano-2-isopropyl-4-(quinoxalin-2-yl)-N-[4-(trifluoromethyl)phenyl]piperazine-1-carboximidamide]
> 7.29 µM	CC(C)C1CN(c2cnc3ccccc3n2)CCN1/C(=N\C#N)Nc1cccc(C(F)(F)F)c1 (stereo not drawn) [Example 1.25, N′-cyano-2-isopropyl-4-(quinoxalin-2-yl)-N-[3-(trifluoromethyl)phenyl]piperazine-1-carboximidamide]
> 10 µM	CC(C)C1CN(c2cnc3ccccc3n2)CCN1/C(=N\C#N)Nc1ccccc1OC(F)(F)F (stereo not drawn) [Example 1.27, N′-cyano-2-isopropyl-4-(quinoxalin-2-yl)-N-[2-(trifluoromethoxy)phenyl]piperazine-1-carboximidamide]

Same assay, conditions: human respiratory syncytial virus, HEp-2, 96 h, read-out: RSV EC50

SMILES	EC50
Cc1ccccc1N/C(=N/C#N)N1CCN(c2cnc3ccccc3n2)C[C@H]1C(C)C [Example 1.12, (2R)—N′-cyano-2-isopropyl-N-(2-methylphenyl)-4-(quinoxalin-2-yl)piperazine-1-carboximidamide trifluoroacetate]	> 32 µM
